# Assay results reported in BindingDB's records for doi:10.1021/jm00012a012 (Wellcome Research Laboratories, 1995).
# Assay: Activity against adenosine diphosphate (ADP) induced platelet aggregation
row,Structure (SMILES),IC50 [µM]
1,CCCCCCOc1ccc(C(=O)OCCCC[N+](C)(C)C)cc1 [[4-(4-Hexyloxy-benzoyloxy)-butyl]-trimethyl-ammonium; iodide],22.5
2,"CCCCCCOc1c(C)cc(C(=O)OCCCC[N+](C)(C)C)cc1C [[4-(4-Hexyloxy-3,5-dimethyl-benzoyloxy)-butyl]-trimethyl-ammonium; iodide]",12
3,"CCCCCCOc1c(OC)cc(C(=O)OCc2ccccc2C[N+](C)(C)C)cc1OC [[2-(4-Hexyloxy-3,5-dimethoxy-benzoyloxymethyl)-benzyl]-trimethyl-ammonium; iodide]",16
4,"CCCCCCCCOc1c(OC)cc(C(=O)OCCCC[N+](C)(C)C)cc1OC [[4-(3,5-Dimethoxy-4-octyloxy-benzoyloxy)-butyl]-trimethyl-ammonium; iodide]",13.8
5,"CCCCCCOc1c(OC)cc(CCCCc2scnc2C)cc1OC [5-[4-(4-Hexyloxy-3,5-dimethoxy-phenyl)-butyl]-4-methyl-thiazole]",13.5

# Compounds with a lower IC50, results first:
row,IC50 [µM],Structure (SMILES)
1,2.9,"CCCCCCCCCCCCCCCCOc1c(OC)cc(C(=O)OCCCC[N+](C)(C)C)cc1OC [[4-(4-Hexadecyloxy-3,5-dimethoxy-benzoyloxy)-butyl]-trimethyl-ammonium; iodide]"
2,2,"CCCCCCCCCCOc1c(OC)cc(C(=O)OCC[N+](C)(C)C)cc1OC [[2-(4-Decyloxy-3,5-dimethoxy-benzoyloxy)-ethyl]-trimethyl-ammonium; iodide]"
3,9.6,CCCCCCOc1c(Cl)cc(C(=O)OCCCC[N+](C)(C)C)cc1OC [[4-(3-Chloro-4-hexyloxy-5-methoxy-benzoyloxy)-butyl]-trimethyl-ammonium; iodide]
